According to PMC6277767, “Broad and Region-Specific Impacts of the Synthetic Cannabinoid CP 55,940 in Adolescent and Adult Female Mouse Brains” (Frontiers in Molecular Neuroscience, 2018):

Test system: CD1 female mouse brain lipidome
Assay: Brain-region lipid levels (HPLC/MS/MS lipidomics) 2 h after single i.p. 3 mg/kg CP 55,940 vs vehicle
Type: in vivo
Settings: cerebellum
Protocol: The Bloomington Institutional Animal Care and Use Committee of Indiana University reviewed and approved the animal procedures. Female mice from the CD1 strain were utilized to match our study examining THC’s effects on the brain lipidome ([Leishman et al., 2018]). Mice were given a single i.p. injection of either 3 mg/kg CP or 1:1:18 cremophor:ethanol:saline vehicle (please refer to the section “3 mg/kg CP Is Relevant for Synthetic Cannabinoid Abuse and Has Stronger Effects on the Female Mouse Brain Lipidome During Adolescence” for a justification of dose and use of female mice). Three different age groups were given injections: PND 35 and PND 50 adolescents, and adult mice (PND 113). At least eight mice in each age group received CP and at least eight received vehicle. Matching the THC study time course ([Leishman et al., 2018]), mice were sacrificed via rapid decapitation 2 h after injection. Brains were immediately removed and flash-frozen in liquid nitrogen, and then stored at -80°C until dissections were performed. Brains were dissected on an ice-cold dissection plate into the following regions: STR, HIPP, CER, THAL, CTX, HYP, MID, and STEM. These abbreviations for these brain areas will be used exclusively when discussing the results generated by these specific dissections. Each dissected area was immediately placed in liquid nitrogen and then stored at -80°C until used for lipid extraction.
Tissue extracts were performed as previously described ([Bradshaw et al., 2006]; [Stuart et al., 2013]; [Raboune et al., 2014]; [Leishman et al., 2016a],[b], [2017], [2018]). First, samples were shock frozen in liquid nitrogen, weighed, and transferred to a centrifuge tube. The mass of the largest sample was multiplied by 50 to determine how many milliliters of HPLC-grade methanol (Fisher, Fair Lawn, NJ, United States) to add. Then, samples were spiked with 500 pmol deuterium-labeled NAGly (d8NAGly; Cayman Chemical, Ann Arbor, MI, United States). Samples were placed on ice in darkness for 2 h then individually homogenized and centrifuged at 19,000 × g for 20 min at 20°C. Supernatants were diluted with HPLC water (purified in house) to make a solution of 75% water, 25% supernatant. Lipids were partially purified on C18 solid phase extraction columns (Agilent, Palo Alto, CA, United States). A series of four elutions with 1.5 mL of 60%, 75%, 85%, and 100% methanol were collected ([Stuart et al., 2013]; [Leishman et al., 2016a],[b], [2018]).
As previously described ([Bradshaw et al., 2006]; [Tan et al., 2006]; [Smoum et al., 2010]; [Stuart et al., 2013]; [Tortoriello et al., 2013]; [Raboune et al., 2014]; [Leishman et al., 2016a],[b], [2017], [2018]), samples were analyzed using an Applied Biosystems API 3000 triple quadrupole mass spectrometer with electrospray ionization (Foster City, CA, United States). Using an Agilent XDB-C18 reversed phase analytical column and optimized mobile phase gradients, 20 μL from each elution were chromatographed. Two Shimadzu 10ADvp pumps (Columbia, MD, United States) provided the pressure for gradient elution. Mobile phase A: 20% methanol, 80% water (v/v) and 1 mM ammonium acetate (Sigma, St. Louis, MO, United States). Mobile phase B: 100% methanol, 1 mM ammonium acetate. Every method run began with 0% mobile phase B, reached 100% mobile phase B flowing at 0.2 mL/min, and gradually returned to 0% mobile phase B.
This screening library will be referred to as the lipidome when discussing data from this study. HPLC/MS/MS data were analyzed using Analyst software (Applied Biosystems) ([Bradshaw et al., 2006]; [Tan et al., 2006]; [Stuart et al., 2013]; [Tortoriello et al., 2013]; [Raboune et al., 2014]; [Leishman et al., 2016a],[b], [2017], [2018]). Chromatograms (Supplementary Figure 3) were generated by determining the retention time of analytes from the analytical column with a [M-1] or [M+1] parent peak and a fragmentation peak corresponding to the programmed values. […]

[1] = WT adult female mice, 3mg/kg CP 55,940

## CCCCCCC(C)(C)c1ccc([C@@H]2C[C@H](O)CC[C@H]2CCCO)c(O)c1 [CP 55,940]
[1]
  N-palmitoyl serine level, Mean: 5.77E-12
  N-palmitoyl tyrosine level, Mean: 9.82E-13
  N-palmitoyl valine level, Mean: 1.08E-13
  N-stearoyl GABA level, Mean: 1.12E-11
  N-stearoyl alanine level, Mean: 5.69E-12
  N-stearoyl ethanolamine level, Mean: 1.6E-11
  N-stearoyl glycine level, Mean: 1.62E-12
  N-stearoyl leucine level, Mean: 1.18E-12
  N-stearoyl methionine level, Mean: 3.32E-13
  N-stearoyl phenylalanine level, Mean: 2.74E-13
  N-stearoyl serine level, Mean: 1.52E-11
  Oleic acid level, Mean: 6.36E-10
  PGE2 level, Mean: 2.14E-10
  PhosphoLEA level, Mean: 4.64E-12
adult, 3 mg/kg CP 55,940
  2-arachidonoyl glycerol: Direction (relative to Veh): ↓
  2-arachidonoyl glycerol: Magnitude (x Veh level): 0.81 x Veh level
  2-linoleoyl glycerol: Direction (relative to Veh): ↓
  2-linoleoyl glycerol: Magnitude (x Veh level): 0.66 x Veh level
  2-oleoyl glycerol: Direction (relative to Veh): ↓
  2-oleoyl glycerol: Magnitude (x Veh level): 0.74 x Veh level
  6-ketoPGF1α: Direction (relative to Veh): ↓
  6-ketoPGF1α: Magnitude (x Veh level): 0.68 x Veh level
  Arachidonic acid: Direction (relative to Veh): ↓
  Arachidonic acid: Magnitude (x Veh level): 0.67 x Veh level
  Linoleic acid: Direction (relative to Veh): ↓
  Linoleic acid: Magnitude (x Veh level): 0.63 x Veh level
  N-arachidonoyl GABA: Direction (relative to Veh): ↓
  N-arachidonoyl GABA: Magnitude (x Veh level): 0.65 x Veh level
  N-arachidonoyl ethanolamine: Direction (relative to Veh): ↓
  N-arachidonoyl ethanolamine: Magnitude (x Veh level): 0.63 x Veh level
  N-arachidonoyl phenylalanine: Direction (relative to Veh): ↓
  N-arachidonoyl phenylalanine: Magnitude (x Veh level): 0.41 x Veh level
  N-arachidonoyl taurine: Direction (relative to Veh): ↓
  N-arachidonoyl taurine: Magnitude (x Veh level): 0.77 x Veh level
  N-docosahexaenoyl GABA: Direction (relative to Veh): ↓
  N-docosahexaenoyl GABA: Magnitude (x Veh level): 0.83 x Veh level
  N-docosahexaenoyl ethanolamine: Direction (relative to Veh): ↓
  N-docosahexaenoyl ethanolamine: Magnitude (x Veh level): 0.73 x Veh level
  N-linoleoyl GABA: Direction (relative to Veh): ↓
  N-linoleoyl GABA: Magnitude (x Veh level): 0.83 x Veh level
  N-linoleoyl ethanolamine: Direction (relative to Veh): ↓
  N-linoleoyl ethanolamine: Magnitude (x Veh level): 0.64 x Veh level
  N-oleoyl serine: Direction (relative to Veh): ↓
  N-oleoyl serine: Magnitude (x Veh level): 0.72 x Veh level
  N-oleoyl valine: Direction (relative to Veh): ↑
  N-oleoyl valine: Magnitude (x Veh level): 2.05 x Veh level
  N-palmitoyl tyrosine: Direction (relative to Veh): ↓
  N-palmitoyl tyrosine: Magnitude (x Veh level): 0.74 x Veh level
  Oleic acid: Direction (relative to Veh): ↓
  Oleic acid: Magnitude (x Veh level): 0.63 x Veh level
  PGE2: Direction (relative to Veh): ↓
  PGE2: Magnitude (x Veh level): 0.70 x Veh level
  PGF2α: Direction (relative to Veh): ↓
  PGF2α: Magnitude (x Veh level): 0.67 x Veh level
  phosphoLEA: Direction (relative to Veh): ↓
  phosphoLEA: Magnitude (x Veh level): 0.71 x Veh level
PND 35, 3 mg/kg CP 55,940
  2-arachidonoyl glycerol: Direction (relative to Veh): ↓
  2-arachidonoyl glycerol: Magnitude (x Veh level): 0.80 x Veh level
  2-linoleoyl glycerol: Direction (relative to Veh): ↓
  2-linoleoyl glycerol: Magnitude (x Veh level): 0.75 x Veh level
  6-ketoPGF1α: Magnitude (x Veh level): 0.61 x Veh level
  Arachidonic acid: Direction (relative to Veh): ↓
  Arachidonic acid: Magnitude (x Veh level): 0.92 x Veh level
  N-arachidonoyl GABA: Direction (relative to Veh): ↓
  N-arachidonoyl GABA: Magnitude (x Veh level): 0.72 x Veh level
  N-arachidonoyl alanine: Direction (relative to Veh): ↓
  N-arachidonoyl alanine: Magnitude (x Veh level): 0.71 x Veh level
  N-arachidonoyl glycine: Direction (relative to Veh): ↓
  N-arachidonoyl glycine: Magnitude (x Veh level): 0.89 x Veh level
  N-arachidonoyl methionine: Direction (relative to Veh): ↓
  N-arachidonoyl methionine: Magnitude (x Veh level): 0.63 x Veh level
  N-arachidonoyl serine: Direction (relative to Veh): ↓
  N-arachidonoyl serine: Magnitude (x Veh level): 0.74 x Veh level
  N-arachidonoyl taurine: Direction (relative to Veh): ↓
  N-arachidonoyl taurine: Magnitude (x Veh level): 0.87 x Veh level
  N-arachidonoyl tyrosine: Direction (relative to Veh): ↓
  N-arachidonoyl tyrosine: Magnitude (x Veh level): 0.70 x Veh level
  N-docosahexaenoyl GABA: Direction (relative to Veh): ↓
  N-docosahexaenoyl GABA: Magnitude (x Veh level): 0.81 x Veh level
  N-docosahexaenoyl alanine: Direction (relative to Veh): ↓
  N-docosahexaenoyl alanine: Magnitude (x Veh level): 0.72 x Veh level
  N-docosahexaenoyl glycine: Direction (relative to Veh): ↓
  N-docosahexaenoyl glycine: Magnitude (x Veh level): 0.92 x Veh level
  N-docosahexaenoyl leucine: Direction (relative to Veh): ↑
  N-docosahexaenoyl leucine: Magnitude (x Veh level): 1.44 x Veh level
  N-docosahexaenoyl serine: Direction (relative to Veh): ↓
  N-docosahexaenoyl serine: Magnitude (x Veh level): 0.72 x Veh level
  N-docosahexaenoyl tyrosine: Direction (relative to Veh): ↓
  N-docosahexaenoyl tyrosine: Magnitude (x Veh level): 0.84 x Veh level
  N-linoleoyl glycine: Direction (relative to Veh): ↓
  N-linoleoyl glycine: Magnitude (x Veh level): 0.89 x Veh level
  N-linoleoyl leucine: Direction (relative to Veh): ↑
  N-linoleoyl leucine: Magnitude (x Veh level): 1.29 x Veh level
  N-linoleoyl phenylalanine: Direction (relative to Veh): ↑
  N-linoleoyl phenylalanine: Magnitude (x Veh level): 1.28 x Veh level
  N-oleoyl GABA: Direction (relative to Veh): ↓
  N-oleoyl GABA: Magnitude (x Veh level): 0.83 x Veh level
  N-oleoyl ethanolamine: Direction (relative to Veh): ↓
  N-oleoyl ethanolamine: Magnitude (x Veh level): 0.81 x Veh level
  N-oleoyl leucine: Direction (relative to Veh): ↑
  N-oleoyl leucine: Magnitude (x Veh level): 1.25 x Veh level
  N-oleoyl phenylalanine: Direction (relative to Veh): ↑
